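A five-concentration, 48-hour dose response in 96-well plates underlies each endpoint, interpolated linearly between surrounding concentrations. TGI denotes the concentration required for complete inhibition of growth.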
Key:
Assay in all cases: NCI anticancer screen, dose series, 48 h
[1] = system: MCF7 breast
[2] = system: SN12C renal
[3] = system: K-562 leukemia
[4] = system: M14 melanoma
[5] = system: NCI-H522 lung
[6] = system: EKVX NSCLC
[7] = system: SK-OV-3 ovarian
[8] = system: SK-MEL-5 melanoma
[9] = system: SK-MEL-2 melanoma
[10] = system: HOP-92 NSCLC
[11] = system: UACC-62 melanoma
[12] = system: NCI/ADR-RES ovarian
[13] = system: RXF 393 renal
[14] = system: OVCAR-4 ovarian
[15] = system: MALME-3M melanoma
[16] = system: CCRF-CEM leukemia
[17] = system: PC-3 prostate
[18] = system: SW-620 colon
[19] = system: LOX IMVI melanoma
[20] = system: T-47D breast

Row | Structure (SMILES) | TGI [1] [µM] | TGI [2] [µM] | TGI [3] [µM] | TGI [4] [µM] | TGI [5] [µM] | TGI [6] [µM] | TGI [7] [µM] | TGI [8] [µM] | TGI [9] [µM] | TGI [10] [µM] | TGI [11] [µM] | TGI [12] [µM] | TGI [13] [µM] | TGI [14] [µM] | TGI [15] [µM] | TGI [16] [µM] | TGI [17] [µM] | TGI [18] [µM] | TGI [19] [µM] | TGI [20] [µM]
1 | C/C1=C\CC[C@@]2(C)O[C@@H]2[C@H]2OC(=O)C(C)C2C[C@H]1O (stereo partly drawn) | > 100 | > 100 | > 100 | > 100 | > 100 | > 100 | > 100 | > 100 | > 100 | > 100 | > 100 | > 100 | > 100 | > 100 | > 100 | > 100 | > 100 | > 100 | > 100 | 
2 | COc1ccccc1N1C(=O)/C(=C\c2cc(OC)c(OC)c(OC)c2)S(=O)(=O)C1c1ccccc1 (stereo not drawn) | > 100 | > 100 | > 100 | > 100 | 50.7 |  | 76.5 | > 100 | > 100 | > 100 | > 100 | 72.1 | 61.1 | > 100 | 96.3 | 61.2 |  | > 100 | > 100 | > 100
3 | Cc1ccc(S(=O)(=O)n2cnc(CC(NC(=O)C3CCC(=O)N3C(=O)OCc3ccccc3)C(=O)N3CCCC3C(=O)NN)c2)cc1 (stereo not drawn) | > 100 | > 100 | > 100 | > 100 |  | > 100 |  | > 100 | > 100 | > 100 |  |  |  |  | > 100 |  | > 100 | > 100 |  | 
4 | C=C1CC(COc2ccc3ccc(=O)oc3c2)(c2ccccc2)OC1=O (stereo not drawn) | 2.78 | 8.23 | 2.45 | 2.4 | 2.29 | 22 | 16.1 | 2.85 | 4.18 | 2.15 | 2.92 | 12.4 |  | 3.22 | 6.77 | 2.7 | 7.58 | 1.94 | 2.57 | 
5 | O=c1[nH]n(Cc2ccccc2CCl)c2ccc([N+](=O)[O-])cc12 | > 100 | > 100 | > 100 | > 100 | 63.2 | > 100 | 81.8 | 30.4 | > 100 | > 100 | > 100 | > 100 | > 100 | > 100 | > 100 | > 100 | > 100 | > 100 | > 100 | 
6 | O=c1[nH]c2ccsc2c(=O)n1COCc1ccccc1 | > 100 | > 100 | > 100 | > 100 | > 100 | > 100 |  | > 100 | > 100 | > 100 |  | > 100 | > 100 | > 100 | > 100 | > 100 | > 100 | > 100 | > 100 | 
7 | O=C(Nc1ccccc1)C(=O)C(C(=O)c1ccccc1)C(c1ccccc1)c1ccccc1 (stereo not drawn) | > 10 | > 10 | > 10 | > 10 |  | > 10 | > 10 | > 10 |  | > 10 | > 10 |  | > 10 | > 10 | > 10 | > 10 | > 10 | > 10 | > 10 | > 10
8 | CO[C@H](c1ccccc1)[C@H](O)[C@](O)(c1ccccc1)P(=O)(OC)OC |  | > 100 | > 100 | > 100 | > 100 | > 100 | > 100 | > 100 | > 100 | > 100 | > 100 | > 100 | > 100 | > 100 | > 100 | > 100 | > 100 | > 100 | > 100 | > 100
9 | C=C(Cl)C(Br)(CBr)CCC(Br)C(C)(C)Br (stereo not drawn) | 5.32 | > 10 | > 10 | > 10 | > 10 | > 10 | > 10 | > 10 |  | > 10 | > 10 |  | 7.86 | > 10 |  | > 10 | > 10 | 9.33 |  | > 1
10 | COc1ccc(N2C(=O)/C(=C\c3cc(OC)c(OC)c(OC)c3)S(=O)(=O)C2c2ccccc2)cc1 (stereo not drawn) | > 100 | > 100 | > 100 | 84.2 | > 100 |  | > 100 | > 100 | 71.1 | > 100 | > 100 | 78.9 | > 100 | > 100 | > 100 | > 100 |  | > 100 | > 100 | > 100
11 | CN1CCN(C(=S)N(C)C(=O)c2cccs2)CC1 | > 100 | > 100 | > 100 | > 100 | > 100 |  |  | > 100 | > 100 | > 100 | > 100 |  | > 100 | > 100 | > 100 | > 100 |  | > 100 | > 100 | > 100

From PubChem BioAssay (NCI)
